Reference: paper PMC9709698 (Journal of Molecular Structure, 2022)

Columns and labels:
NRC-03-nhCoV = test: Antiviral activity; format: cell-based, SARS-CoV-2; settings: CC50 Vero-E6 / IC50 NRC-03-nhCoV
SARS-CoV-2 = test: Plaque infectivity reduction assay; format: cell-based; settings: for inhibition at 62.5 µM: Severe acute respiratory syndrome coronavirus 2, read-out: Virus inhibition% Adsorption, 62.5 µM; for inhibition at 125 µM: Severe acute respiratory syndrome coronavirus 2, read-out: Virus inhibition% Adsorption, 125 µM

## O=C(CSc1nc2ccccc2c(=O)[nH]1)Nc1ccccc1C(=O)O [Compound 11a, 2-(2-((4-Oxo-3,4-dihydroquinazolin-2-yl)thio)acetamido)benzoic acid]
NRC-03-nhCoV
  SI (selectivity index) [CC50/IC50]: 4.3

## O=C(CSc1nc2ccccc2c(=O)[nH]1)Nc1cccc(C(=O)O)c1 [Compound 11b, 3-(2-((4-Oxo-3,4-dihydroquinazolin-2-yl)thio)acetamido)benzoic acid]
NRC-03-nhCoV
  SI (selectivity index) [CC50/IC50]: 4.9

## O=C(CSc1nc2ccccc2c(=O)[nH]1)Nc1ccc(C(=O)O)cc1 [Compound 11c, 4-(2-((4-Oxo-3,4-dihydroquinazolin-2-yl)thio)acetamido)benzoic acid]
NRC-03-nhCoV
  SI (selectivity index) [CC50/IC50]: 5.6

## O=C(CSc1nc2c(c(=O)[nH]1)CCCC2)Nc1ccccc1C(=O)O [Compound 12a, 2-(2-((4-Oxo-3,4,5,6,7,8-hexahydroquinazolin-2-yl)thio)acetamido)benzoic acid]
NRC-03-nhCoV
  SI (selectivity index) [CC50/IC50]: 2.5

## O=C(CSc1nc2c(c(=O)[nH]1)CCCC2)Nc1cccc(C(=O)O)c1 [Compound 12b, 3-(2-((4-Oxo-3,4,5,6,7,8-hexahydroquinazolin-2-yl)thio)acetamido)benzoic acid]
NRC-03-nhCoV
  SI (selectivity index) [CC50/IC50]: 0.98

## O=C(CSc1nc2c(c(=O)[nH]1)CCCC2)Nc1ccc(C(=O)O)cc1 [Compound 12c, 4-(2-((4-Oxo-3,4,5,6,7,8-hexahydroquinazolin-2-yl)thio)acetamido)benzoic acid]
NRC-03-nhCoV
  SI (selectivity index) [CC50/IC50]: 0.63

## O=C(CSc1nc2ccccc2c(=O)[nH]1)NNC(=O)c1ccccc1 [Compound 17a, N'-(2-((4-Oxo-3,4-dihydroquinazolin-2-yl)thio)acetyl)benzohydrazide]
NRC-03-nhCoV
  SI (selectivity index) [CC50/IC50]: 0.59

## Cc1ccc(C(=O)NNC(=O)CSc2nc3ccccc3c(=O)[nH]2)cc1 [Compound 17b, 4-Methyl-N'-(2-((4-oxo-3,4-dihydroquinazolin-2-yl)thio)acetyl)benzohydrazide]
NRC-03-nhCoV
  SI (selectivity index) [CC50/IC50]: 2.14

## O=C(CSc1nc2ccccc2c(=O)[nH]1)NNC(=O)c1ccc([N+](=O)[O-])cc1 [Compound 17c, 4-Nitro-N'-(2-((4-oxo-3,4-dihydroquinazolin-2-yl)thio)acetyl)benzohydrazide]
NRC-03-nhCoV
  SI (selectivity index) [CC50/IC50]: 2.61

## COc1ccccc1C(=O)NNC(=O)CSc1nc2ccccc2c(=O)[nH]1 [Compound 17d, 2-Methoxy-N'-(2-((4-oxo-3,4-dihydroquinazolin-2-yl)thio)acetyl)benzohydrazide]
NRC-03-nhCoV
  SI (selectivity index) [CC50/IC50]: 0.4

## O=C(CSc1nc2ccccc2c(=O)[nH]1)NNC(=O)c1ccccc1Cl [Compound 17e, 2-Chloro-N'-(2-((4-oxo-3,4-dihydroquinazolin-2-yl)thio)acetyl)benzohydrazide]
NRC-03-nhCoV
  SI (selectivity index) [CC50/IC50]: 0.24

## O=C(CSc1nc2ccccc2c(=O)[nH]1)NNC(=O)c1ccc(Cl)cc1 [Compound 17f, 4-Chloro-N'-(2-((4-oxo-3,4-dihydroquinazolin-2-yl)thio)acetyl)benzohydrazide]
NRC-03-nhCoV
  SI (selectivity index) [CC50/IC50]: 4.3

## O=C(CSc1nc2ccccc2c(=O)[nH]1)NNC(=O)c1ccccc1Br [Compound 17g, 2-Bromo-N'-(2-((4-oxo-3,4-dihydroquinazolin-2-yl)thio)acetyl)benzohydrazide]
NRC-03-nhCoV
  SI (selectivity index) [CC50/IC50]: 8.64
SARS-CoV-2
  inhibition at 62.5 µM: 26.7 ± 6.65%
  inhibition at 125 µM: 29.6 ± 8.3%

## O=C(CSc1nc2c(c(=O)[nH]1)CCCC2)NNC(=O)c1ccccc1 [Compound 18a, N'-(2-((4-oxo-3,4,5,6,7,8-hexahydroquinazolin-2-yl)thio)acetyl)benzohydrazide]
NRC-03-nhCoV
  SI (selectivity index) [CC50/IC50]: 1.68

## Cc1ccc(C(=O)NNC(=O)CSc2nc3c(c(=O)[nH]2)CCCC3)cc1 [Compound 18b, 4-Methyl-N'-(2-((4-oxo-3,4,5,6,7,8-hexahydroquinazolin-2-yl)thio)acetyl)benzohydrazide]
NRC-03-nhCoV
  SI (selectivity index) [CC50/IC50]: 4.43

## O=C(CSc1nc2c(c(=O)[nH]1)CCCC2)NNC(=O)c1ccc([N+](=O)[O-])cc1 [Compound 18c, 4-Nitro-N'-(2-((4-oxo-3,4,5,6,7,8-hexahydroquinazolin-2-yl)thio)acetyl)benzohydrazide]
NRC-03-nhCoV
  SI (selectivity index) [CC50/IC50]: 10.67
SARS-CoV-2
  inhibition at 62.5 µM: 28.9 ± 10.2%
  inhibition at 125 µM: 44.4 ± 3.87%

## COc1ccccc1C(=O)NNC(=O)CSc1nc2c(c(=O)[nH]1)CCCC2 [Compound 18d, 2-Methoxy-N'-(2-((4-oxo-3,4,5,6,7,8-hexahydroquinazolin-2-yl)thio)acetyl)benzohydrazide]
NRC-03-nhCoV
  SI (selectivity index) [CC50/IC50]: 2.95

## O=C(CSc1nc2c(c(=O)[nH]1)CCCC2)NNC(=O)c1ccccc1Cl [Compound 18e, 2-Chloro-N'-(2-((4-oxo-3,4,5,6,7,8-hexahydroquinazolin-2-yl)thio)acetyl)benzohydrazide]
NRC-03-nhCoV
  SI (selectivity index) [CC50/IC50]: 1.14

## O=C(CSc1nc2c(c(=O)[nH]1)CCCC2)NNC(=O)c1ccc(Cl)cc1 [Compound 18f, 4-Chloro-N'-(2-((4-oxo-3,4,5,6,7,8-hexahydroquinazolin-2-yl)thio)acetyl)benzohydrazide]
NRC-03-nhCoV
  SI (selectivity index) [CC50/IC50]: 16.04
SARS-CoV-2; 125 µM
  Virus inhibition% Virucidal: 53.3 ± 3.35%
SARS-CoV-2
  inhibition at 62.5 µM: 13.3 ± 3.35%
  inhibition at 125 µM: 20 ± 3.3%

## O=C(CSc1nc2c(c(=O)[nH]1)CCCC2)NNC(=O)c1ccccc1Br [Compound 18g, 2-Bromo-N'-(2-((4-oxo-3,4,5,6,7,8-hexahydroquinazolin-2-yl)thio)acetyl)benzohydrazide]
NRC-03-nhCoV
  SI (selectivity index) [CC50/IC50]: 5.23
